Assay results: paper PMC9570995, “Design, Synthesis, and Biological Evaluation of Novel Dihydropyridine and Pyridine Analogs as Potent Human Tissue Nonspecific Alkaline Phosphatase Inhibitors with Anticancer Activity: ROS and DNA Damage-Induced Apoptosis” (Molecules, 2022)

How the values were obtained:
[1] = test system: Breast Cancer (MCF-7) Cells; test: MTT cell viability assay, MCF-7; assay type: cell-based; conditions: Homo sapiens
Source text: An MTT assay was used to determine the viability of the cells under examination in the desired medium. The mitochondrial dehydrogenase enzyme of the viable cells has a key role in the conversion of the yellow water-soluble substrate 3-(4,5-dimethylthiazol-2-y1)-2,5 diphenyl tetrazolium bromide (MTT) into a dark blue formazan product that is insoluble in water. The anticancer activity of the novel synthetic derivatives (4a–4k) was investigated through an MTT assay, with small modifications following the already published protocols against cancer cell lines (HeLa and MCF-7), using cisplatin as a reference drug. The cytotoxic effect of the tested compounds at 100 µM concentration was determined and represented as the percent growth inhibition compared with the untreated control cells. The first series comprised dihydropyridines analogous from 4a–4f with various substitution patterns on the phenyl ring. […] It is presumed that the 1-naphthyl containing compound 4c was locked in a configuration that is not favorable for an interaction with amino acid residues.
The anti-proliferative activity of the synthesized compounds was determined in MCF-7 and HeLa cells by an MTT cell viability assay, as described earlier. Briefly, we seeded 1 × 10^4 cells/well in a sterile 96-well culture microtiter plate and incubated them in a 5% CO2 incubator at 37 °C for 24 h. […] After 24 h, the cells were treated with 0.2 mg/mL of MTT reagent for 4 h. We added 10% acidified SDS (sodium dodecyl sulfate) solubilizing solution in propanol (1:1) to solubilize the formazan crystals. After 30 min at 37 °C, the plate was placed on a gyratory shaker to completely dissolve the formazan crystals. The plate was placed on a microplate reader to measure the optical density at 570 nm. The IC50 values were calculated from three independent experiments as previously reported.

[2] = test system: Herring sperm DNA; test: Fluorescence emission titration with DNA; assay type: binding; conditions: compound 10 µM, DMF/H2O (1:9, v/v)
Description: The fluorescence emission studies of compound 4d (10 µM) were accomplished in DMF/H2O (1:9, v/v) before and after the continual addition of DNA (0–50 µg/mL) to probe out the compound-DNA interaction. […] As evident in Figure 8, the fluorescence emission of compound 4d was attenuated by ~55% (calculated through I0/I) upon the maximum addition of 50 µg/mL of DNA. The substantial fluorescence quenching behavior of 4d upon the addition of DNA is perhaps attributed to the efficient binding of the compound to the minor groove of DNA [68]. […] Next, the excellent binding efficiency of compound 4d with DNA was well elucidated through the Stern–Volmer (SV) plot, which was produced between the increased fluorescence quenching efficiency and increasing concentration of DNA solution. […]
Reagent grade solvents were used for purification purposes. Silica gel with 70–230 mesh size and pure solvents were used for the column chromatography. ^1H, ^13C, and DEPT-135 NMR spectra were recorded on a 400 MHz spectrometer using DMSO as the solvent and TMS as the internal standard. The chemical shifts, multiplicity, and coupling constants were calculated from data obtained through the FID file. […] The IC50 and percent inhibition were calculated by using GraphPad software. […] The optical density was measured through a microplate reader at 570 nm. […]

[3] = test system: HeLa cells; test: Microscopic evaluation of ROS generation (H2DCF-DA); assay type: cell-based; conditions: IC50 and 2 × IC50, versus control
Source text: The production of reactive oxygen species (ROS) has been an extensively researched topic in medicinal chemistry due to their involvement in numerous biochemical phases of health and disease. In a biological system, redox-sensitive fluorogenic materials such as 2′,7′-dichlorodihydrofluorescein-diacetate (DCFH2-DA) are commonly used to investigate the production of ROS during oxidative stress. It easily penetrates through the cell membrane, where esterase enzyme hydrolyzes the acetate group to a more hydrophilic group, which further oxidizes in the cytoplasmic region to give rise to a highly fluorescent product. In this study, the HeLa cells were used to investigate the production of ROS. The non-fluorescent material 2′,7′-dichlorodihydrofluorescein (DCFH2) converts into the fluorescent 2′,7′-dichlorofluorescein (DCF) under intracellular oxidative stress.
The production of reactive oxygen species (ROS) in compound 4d-treated HeLa cells was observed by applying a published protocol with some modifications. Cells at a density of 2 × 10^5 cells/well/mL were grown on round coverslips in a 24-well plate and kept in an incubator having humid 5% CO2 and 95% air at 37 °C. […] Cells were gently washed with PBS to remove excess dye, and images were captured at a magnification of 20× using excitation/emission filters at 488/530 nm with the help of a fluorescence microscope (Nikon ECLIPSE Ni–U).

IC50 ([1]; MCF7, unit given, read-out: Breast Cancer (MCF-7) Cells IC50 Values ± SEM): 38.7 ± 2.31 µM
Structure (SMILES): N#CC1=C(N)N(Cc2ccccc2)C(N)=C(C#N)C1c1ccc2ccccc2c1 [Compound 4d, 2,6-Diamino-1-benzyl-4-(naphthalen-2-yl)-1,4-dihydropyridine-3,5-dicarbonitrile]
inhibition at 100 µM ([1]; MCF7, 100 µM, 24 h): 85.8%
Stern–Volmer constant (Ksv) ([2]; DNA 0–50 µg/mL): 34100 M⁻¹
attenuation of fluorescence emission ([2]; 50 µg/mL DNA, emission 410 nm): ~ 55%
production of ROS [3]: dose-dependent increase
